According to US10508113B2, “Inhibitors of tyrosine kinase 2 mediated signaling” (AbbVie Inc., priority 2018, dated 2019):

Target: T1, Jak2 (Homo sapiens, UniProt O60674)
T1 construct: Cell Type: UT7 cells engineered to express the erythropoietin (EPO) receptor; endogenous in cells; host or cells: UT7 cells engineered to express the EPO receptor
Assay: Jak2 (PSTATS UT7) alpha screen assay: inhibition of EPO induced phosphorylation of STAT5 in UT7 cells
Type: cell-based
Conditions: for EC50: EPO induced pSTAT5, UT7 cells; for Tyk2 selectivity over Jak2: calculated from tabulated EC50 data (Jak2 / Tyk2)
In short: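 EPO-receptor-expressing UT7 cells, starved overnight of EPO, preincubated 30 min at 37 °C with compound (8-point 1:3, top 25 µM final), then stimulated with 1 nM EPO for 20 min. After lysis, pSTAT5 (Tyr694/699) measured by SureFire AlphaScreen; EC50 from dose-response of percent activity.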

T1 sequence (O60674 whole entry): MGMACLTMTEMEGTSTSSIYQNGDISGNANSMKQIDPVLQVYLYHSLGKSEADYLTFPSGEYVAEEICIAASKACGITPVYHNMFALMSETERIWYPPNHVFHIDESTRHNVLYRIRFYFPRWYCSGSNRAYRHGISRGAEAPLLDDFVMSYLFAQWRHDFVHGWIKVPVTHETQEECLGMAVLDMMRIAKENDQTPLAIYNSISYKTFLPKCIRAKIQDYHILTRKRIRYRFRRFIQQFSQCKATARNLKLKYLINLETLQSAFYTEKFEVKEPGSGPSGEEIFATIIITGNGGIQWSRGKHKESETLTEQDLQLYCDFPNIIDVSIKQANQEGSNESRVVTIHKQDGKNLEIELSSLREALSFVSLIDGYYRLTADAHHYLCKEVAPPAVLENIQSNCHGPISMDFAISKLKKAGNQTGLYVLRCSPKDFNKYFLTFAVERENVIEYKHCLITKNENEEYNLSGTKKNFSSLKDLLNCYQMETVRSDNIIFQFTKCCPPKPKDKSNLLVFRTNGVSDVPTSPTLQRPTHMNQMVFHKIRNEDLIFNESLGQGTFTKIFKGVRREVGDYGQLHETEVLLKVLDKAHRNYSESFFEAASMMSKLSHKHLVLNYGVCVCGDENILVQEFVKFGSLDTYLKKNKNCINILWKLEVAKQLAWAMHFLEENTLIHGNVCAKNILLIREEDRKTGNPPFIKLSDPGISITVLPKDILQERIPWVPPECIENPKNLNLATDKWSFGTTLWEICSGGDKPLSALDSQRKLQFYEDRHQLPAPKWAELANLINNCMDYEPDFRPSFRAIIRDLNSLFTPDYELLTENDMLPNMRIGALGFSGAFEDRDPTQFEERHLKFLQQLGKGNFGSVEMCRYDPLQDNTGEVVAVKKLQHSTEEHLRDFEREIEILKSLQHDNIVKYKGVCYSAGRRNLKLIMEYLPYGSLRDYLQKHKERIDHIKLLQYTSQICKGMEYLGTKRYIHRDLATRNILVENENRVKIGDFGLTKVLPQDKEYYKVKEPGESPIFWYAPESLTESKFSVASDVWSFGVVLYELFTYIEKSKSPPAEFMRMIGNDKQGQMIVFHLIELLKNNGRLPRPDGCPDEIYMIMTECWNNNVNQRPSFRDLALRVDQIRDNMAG

COCc1cc(-c2cn(C)c3cnc(NC(C)=O)cc23)nc([C@]2([C@H](C)O)CCOC2)c1 [Example 22.3, N-(3-(6-((R)-3-((S)-1-hydroxyethyl)tetrahydrofuran-3-yl)-4-(methoxymethyl)pyridin-2-yl)-1-methyl-1H-pyrrolo[2,3-c]pyridin-5-yl)acetamide]
EC50: > 25 µM
Tyk2 selectivity over Jak2: >170-fold

COCc1cc(-c2cn(C)c3cnc(NC(C)=O)cc23)nc([C@]2([C@@H](C)O)CCOC2)c1 [Example 22.4, N-(3-(6-((R)-3-((R)-1-hydroxyethyl)tetrahydrofuran-3-yl)-4-(methoxymethyl)pyridin-2-yl)-1-methyl-1H-pyrrolo[2,3-c]pyridin-5-yl)acetamide]
EC50: > 25 µM
Tyk2 selectivity over Jak2: >223-fold
